In paper PMC8072890, “Aminoalkylamides of Eremomycin Exhibit an Improved Antibacterial Activity” (Pharmaceuticals, 2021):
Marks after values point to notes of the source that are not given here.

What was measured:
E. faecalis 559 = format: cell-based; details: sensitive strain; broth dilution micromethod, CLSI; modal values (or range) of 3–5 independent tests
Text: (§1) The antimicrobial activity of semisynthetic derivatives of eremomycin 4a–q was studied in comparison with vancomycin on a wide panel of Gram-positive bacteria sensitive (Staphylococcus aureus ATCC 29213, S. aureus R-2, S. haemoliticus 602, S. pneumoniae ATCC 6305, Enteroccus faecium 4, and E. faecalis 559) and resistant to vancomycin (S. aureus 3797, S.aureus 3798, E. faecium 2, E. faecium 3576, E. faecalis 9, E. faecalis 583, and E. gallinarum BΠ 4147), information about the strains given in Table S3. The minimum microbial inhibitory concentration (MIC) for the test compounds was determined by the broth dilution micromethod according to CLSI guidelines, and vancomycin and a standard strain S. aureus ATCC 29213 used as controls (Figure 2 and Tables S4 and S5).
(§2) Table S4. Antibacterial activity of vancomycin and derivatives 4a–q against sensitive Gram-positive bacteria.
(§3) Strain/MIC (Minimum inhibitory concentration, μg/ml)*
(§4) Compound m n R S.aureus АТСС S.aureus R-2 S.haemoliticus S.pneumoniae АТСС E. faecium 4 E. faecalis 559
(§5) *MICs are presented as modal values for 3–5 independently replicated MIC tests for each strain and for the antibiotics. In the range of the
(§6) obtained MIC values, the obtained modal values are highlighted in bold.

E. faecium 4 = format: cell-based; details: sensitive strain; broth dilution micromethod, CLSI; modal values (or range) of 3–5 independent tests
Text: as §1, §2, §3, §4, §5, §6

S. aureus R-2 = format: cell-based; details: sensitive strain; broth dilution micromethod, CLSI; modal values (or range) of 3–5 independent tests
Text: as §1, §2, §3, §4, §5, §6

S. haemoliticus 602 = format: cell-based; details: sensitive strain; broth dilution micromethod, CLSI; modal values (or range) of 3–5 independent tests
Text: as §1, §2, §3, §4, §5, §6

[1] = tested on: Staphylococcus aureus ATCC 29213; format: cell-based; details: vancomycin-sensitive control strain; broth dilution micromethod, CLSI; modal values (or range) of 3–5 independent tests
Text: as §1, §2, §3, §4, §5, §6

S. pneumoniae ATCC 6305 = experiment: MIC, broth dilution micromethod (CLSI); format: cell-based; details: sensitive strain, modal values (or range) of 3–5 independent tests
Text: as §1, §2, §3, §4, §5, §6

E. faecalis 583 = format: cell-based; details: strain resistant to vancomycin; broth dilution micromethod, CLSI; modal values (or range) of 3–5 independent tests
Text: as §1
(§7) Table S5. Antibacterial activity of vancomycin and derivatives 4a–q against resistant Gram-positive bacteria.
(§8) Strain/MIC (minimum inhibitory concentration; μg/ml)
(§9) Compound m n R S.aureus 3797 S.aureus 3798 E. faecium 2 E. faecium 3576 E. faecalis 9 E. faecalis 583 E. gallinarum
(§10) *MICs are presented as modal values for 3–5 independently replicate MIC tests for each strain and for the antibiotics. In the range of the obtained MIC
(§11) values, the obtained modal values are highlighted in bold.

E. faecalis 9 = format: cell-based; details: strain resistant to vancomycin; broth dilution micromethod, CLSI; modal values (or range) of 3–5 independent tests
Text: as §1, §7, §8, §9, §10, §11

E. faecium 2 = format: cell-based; details: strain resistant to vancomycin; broth dilution micromethod, CLSI; modal values (or range) of 3–5 independent tests
Text: as §1, §7, §8, §9, §10, §11

E. faecium 3576 = format: cell-based; details: strain resistant to vancomycin; broth dilution micromethod, CLSI; modal values (or range) of 3–5 independent tests
Text: as §1, §7, §8, §9, §10, §11

E. gallinarum BΠ 4147 = format: cell-based; details: strain resistant to vancomycin; broth dilution micromethod, CLSI; modal values (or range) of 3–5 independent tests
Text: as §1, §7, §8, §9, §10, §11

S. aureus 3797 = format: cell-based; details: strain resistant to vancomycin; broth dilution micromethod, CLSI; modal values (or range) of 3–5 independent tests
Text: as §1, §7, §8, §9, §10, §11

S.aureus 3798 = format: cell-based; details: strain resistant to vancomycin; broth dilution micromethod, CLSI; modal values (or range) of 3–5 independent tests
Text: as §1, §7, §8, §9, §10, §11

[2] = tested on: S. aureus (strain 10, clinical isolate); experiment: Mouse staphylococcal sepsis model, single IV administration; format: in vivo, mice (SHK colony); details: for Survival: 30 min after infection, n = 10
Procedure: A comparative study of the efficacy of eremomycin N-(2-((2-fluorobenzyl)amino)ethyl)amide (4e) and vancomycin was carried out in a mice staphylococcal sepsis model. Healthy female mice of the SHK colony weighing 20–22 g after two-week quarantine were randomized into groups (n = 10) and received S. aureus as the infectious agent (strain 10, clinical isolate, adapted for growth in vivo by five-fold passaging in mice). In the experiment, female mice of the SHK colony weighing 20–22 g were used. S. aureus (strain 10, clinical isolate), adapted for growth in vivo by five-fold passaging in mice, was used as the infectious agent. Initially, the lethal dose (LD100) of staphylococcus was determined for this mouse line using the intravenous infection route. The mice deaths were counted daily for 10 days. Thus, the lethal dose (LD100) was defined as 8 × 10^8 CFU/mouse. Afterwards, the mice were seated in cages of 10 heads and were infected intravenously with S. aureus at a lethal dose, and the efficacy of the tested drugs was determined by the ED50 value (i.e., the dose at which 50% of the experimental animals survive). Then, 30 min after infection, the mice were injected intravenously with eremomycin N-(2-((2-fluorobenzyl)amino)ethyl)amide (4e) at single doses from 0.1 to 2.5 mg/kg. or vancomycin at doses from 2.5 to 7.5 mg/kg. As a control dose, a group of untreated animals infected with a lethal dose of S. aureus was present in the experiment. The determination of ED50 of the tested compounds was carried out in one experiment under a single control using the Behrens method.

[3] = Acute toxicity, single IV injection in mice; format: in vivo, F1 (CBAxC57Bl) mice
Procedure: The F1 (CBAxC57Bl) mice (18–20 g) were randomized into groups (n = 6) and received eremomycin N-(2-((2-fluorobenzyl)amino)ethyl)amide 4e through single intravenous injections. The intact animals were used as the control. The substance was dissolved in a 5% glucose solution and was administrated in dosage ranges of 130–200 mg/kg into the tail veins of the mice. The concentration of 4e in the injected solution was 5 mg/mL.
The acute toxicity was estimated by the mortality and survival time, as well as by the body weight gain/loss, food consumption, and clinical symptoms of intoxication, including behavioral reactions. […] The LD50 values and the maximum tolerated doses (MTD = LD10) were calculated using the method of Litchfield and Wilcoxon using the StatPlus Professional 3.8.0 software.

[4] = mouse staphylococcal sepsis model, single IV

Row | Substance | MIC E. faecalis 559 (E. faecalis 559) | MIC E. faecium 4 (E. faecium 4) | MIC S.aureus R-2 (S. aureus R-2) | MIC S.haemoliticus 602 (S. haemoliticus 602) | MIC S.aureus ATCC 29213 [1] | MIC S.pneumoniae ATCC 6305 (S. pneumoniae ATCC 6305) | MIC E. faecalis 583 (E. faecalis 583) | MIC E. faecalis 9 (E. faecalis 9) | MIC E. faecium 2 (E. faecium 2) | MIC E. faecium 3576 (E. faecium 3576) | MIC E. gallinarum ВП 4147 (E. gallinarum BΠ 4147) | MIC S.aureus 3797 (S. aureus 3797) | MIC S.aureus 3798 (S.aureus 3798) | other results
1 | Eremomycin N-(2-((2-fluorobenzyl)amino)ethyl)amide [4e] | 0.125 mg/L | 0.25 mg/L | 0.03 to 0.06 mg/L | 0.125 mg/L | 0.125 mg/L | 0.01 mg/L | 0.25 to 0.5 mg/L | 0.03 to 0.06 mg/L | 0.5 mg/L | 0.5 to 1 mg/L | 0.5 mg/L | 0.5 mg/L | 1 mg/L | Survival ([2]; dose 0.25 mg/kg, single IV): 30%; Survival ([2]; dose 0.5 mg/kg, single IV): 50%; Survival ([2]; dose 1 mg/kg, single IV): 60%; Survival ([2]; dose 1.5 mg/kg, single IV): 80%; Survival ([2]; dose 2.5 mg/kg, single IV): 100%; ED50 ([2]; mice infected IV with lethal dose of S. aureus (8 × 10^8 CFU/mouse), single IV dose 30 min after infection, n = 10 per group, observed 14 days, Behrens method): 0.55 mg/kg; ED50 ratio: times more active than eremomycin [2, 4]: 3.3 times; ED50 ratio: times more effective than vancomycin [2, 4]: 7.5 times; outcome after the highest dose ([3]; 200 mg/kg, single IV, mice): died immediately; delayed death of animals ([3]; 130–200 mg/kg, single IV, mice, observed 30 days): No delayed death; therapeutic index (TI = LD50/ED50) ([3]; laboratory animals (mice), IV, LD50 acute toxicity / ED50 staphylococcal sepsis): 318; LD50 ([3]; mice, single IV injection in 5% glucose, 5 mg/mL, n = 6 per group, Litchfield and Wilcoxon, mean (deviation for p ≤ 0.05)): 175.5 (161.7 ÷ 189.8) * mg/kg; MTD (LD10) ([3]; mice, single IV injection, n = 6 per group, Litchfield and Wilcoxon): 144.7 mg/kg
2 | Eremomycin N-(2-((2,3,4,5,6-pentafluorobenzyl)amino)ethyl)amide [4p] | 1 mg/L | 1 mg/L | 0.25 mg/L | 0.25 to 0.5 mg/L | 0.25 mg/L | 0.01 mg/L | 1 mg/L | 0.25 mg/L | 1 mg/L | 4 mg/L | 2 mg/L | 1 to 2 mg/L | 4 mg/L | –
3 | Eremomycin N-(2-((2,4-dichlorobenzyl)amino)ethyl)amide [4n] | 1 mg/L | 1 mg/L | 0.25 to 0.5 mg/L | 0.25 mg/L | 0.5 mg/L | 0.03 to 0.06 mg/L | 2 mg/L | 0.25 mg/L | 2 mg/L | 2 mg/L | 2 mg/L | 1 mg/L | 2 mg/L | –
4 | Eremomycin N-(2-(benzylamino)ethyl)amide [4a] | 0.25 mg/L | 0.25 to 0.5 mg/L | 0.03 mg/L | 0.5 mg/L | 0.25 mg/L | 0.25 mg/L | 0.5 mg/L | 0.06 mg/L | 1 mg/L | 1 to 2 mg/L | 1 mg/L | 0.5 mg/L | 0.5 to 1 mg/L | –
5 | Eremomycin N-(2-((2-chloro-6-fluorobenzyl)ethyl)amide [4m] | 0.5 to 1 mg/L | 0.5 mg/L | 0.125 to 0.25 mg/L | 0.125 mg/L | 0.25 mg/L | 0.06 mg/L | 1 mg/L | 0.25 to 0.5 mg/L | 1 mg/L | 2 mg/L | 2 mg/L | 2 mg/L | 2 mg/L | –
6 | Eremomycin N-(2-((3,5-difluorobenzyl)amino)ethyl)amide [4k] | 0.5 mg/L | 0.5 mg/L | 0.125 to 0.25 mg/L | 0.125 mg/L | 0.25 mg/L | 0.01 mg/L | 1 mg/L | 0.06 mg/L | 1 mg/L | 1 mg/L | 1 mg/L | 0.5 mg/L | 1 mg/L | –
7 | Eremomycin N-(2-phenethylamino)ethyl)amide [4b] | 0.5 mg/L | 0.5 mg/L | 0.06 mg/L | 0.5 mg/L | 0.5 mg/L | 0.01 mg/L | 0.5 mg/L | 0.06 mg/L | 1 mg/L | 2 mg/L | 1 mg/L | 1 mg/L | 2 mg/L | –
